# Experiments:
# Male Sprague-Dawley rats [1] = experiment: Rat elevated zero-maze study with racemic MBDB, R-MBDB, S-MBDB and chlordiazepoxide; conditions: for Dose showing a switch to an anxiolytic effect (magnitude of the reduction in SAPs): ip
# Description: Two opposite quadrants are enclosed by Perspex walls on both the inner and the outer edges of the platform, while the remaining two opposite quadrants are open being enclosed only by a Perspex “lip”. Animals will show a preference for the closed areas, and avoidance of the open sections is assumed to stem from a rodent's natural aversion to open, exposed spaces. A reduction in the amount of activity on the open areas is considered to reflect an increase in anxiety. The ethologically-based behavior stretched attend postures (SAP) from closed to open quadrants is assessed as an index of anxiety. […] Animals
# (§1) Male Sprague-Dawley 200-250 g (Envigo UK) rats were used. Animals were group-housed (5 per cage; cage size: 40×40×20 cm) in a temperature-controlled environment (22±2° C.), under a 12 h light-dark cycle (lights on: 08:00 hours) for one week prior to testing. Food and water were freely available. Number of animals per group=5.
# (§2) The elevated 0-maze comprises a black Perspex annular platform (105 cm diameter, 10 cm width) elevated to 65 cm above ground level, divided equally into four quadrants. Two opposite quadrants are enclosed by clear red Perspex walls (27 cm high) on both the inner and outer edges of the platform, while the remaining two opposite quadrants are surrounded only by a Perspex “lip” (1 cm high) which serves as a tactile guide to animals on these open areas.
# Subjects were weighed and tail marked before being injected. After a specified pretreatment time, subjects were placed in a closed quadrant and a 5-min test period were recorded on videotape for subsequent analysis. The maze was cleaned with 5% methanol/water solution and dried thoroughly between test sessions. Behavioural measures comprise percentage time spent on the open areas (% TO) and frequency of stretched attend postures (SAP) from closed to open quadrants. Since the control groups were all treated identically with the same vehicle these were combined to increase power. The Chlordiazepoxide groups were also treated identically with the same dose so these were also combined to increase power. Animals are scored as being in the open area when all four paws were in an open quadrant and in the closed area only when all four paws have passed over the open-closed divide.
# Thirty min later at T=0, rats were individually placed in a closed arm of the zero-maze and behavior assessed by a “blind” observer using remote video monitoring over the subsequent 5 min. The animals were then removed and the maze carefully wiped with 5% methanol/water solution before the next test was begun.
# Thirty min later at T=0, rats were individually placed in a closed arm of the zero-maze and behavior was assessed by a “blind” observer using remote video monitoring over the subsequent 5 min. The animal were then removed and the maze carefully wiped with 5% methanol/water solution before the next test was begun.
# Thirty min later at T=0, rats were individually placed in a closed arm of the zero-maze and behavior was assessed by a “blind” observer using remote video monitoring over the subsequent 5 min.
# [2] = tested on: participants diagnosed with at least moderate post-traumatic stress disorder (PTSD); experiment: Double-blind, randomized, placebo-controlled clinical trial of MBDB-assisted psychotherapy in PTSD; type: in vivo, human; conditions: for Change in CAPS-5 assessment: Study Conclusion, hydrochloride salt with psychotherapy; for Change in CAPS-5 assessment / Clinician-rated functional impairment score (SDS) / Depression (HAM-D): vs placebo; for Daytime sleepiness (ESS): human, in vivo; for Total dosage of drug to achieve significant mean reduction in CAPS-5: vs racemic MBDB-treated subgroup
# Method: A multicenter, randomized, double-blind, placebo-controlled trial is conducted to assess the efficacy and safety of MBDB-assisted psychotherapy versus psychotherapy with placebo control in participants diagnosed with at least moderate post-traumatic stress disorder (PTSD).
# This multicenter, randomized, double-blind, placebo-controlled trial is conducted at various sites in the United States with IRB approval from each study site. A flexible dose of MBDB hydrochloride salt or placebo, followed by a supplemental half-dose unless contraindicated by patient's previous response or medical history, is also administered during the Treatment Period with psychotherapy in at least 3 blinded monthly Experimental Sessions. The Supplemental Dose extends the duration of drug effects on the participants during an Experimental Session. MBDB test groups are further subdivided into specific groups receiving only racemic MBDB hydrochloride salt, S-MBDB hydrochloride salt, or R-MBDB hydrochloride salt. An optional Risk Evaluation and Mitigation Strategy (REMS) Protocol may be implemented for the racemic MBDB, S-MBDB, R-MBDB, and placebo-groups. The Treatment Period lasts for approximately 12 weeks. During the Treatment Period, each Experimental Session is followed by three Intervening Sessions of non-drug psychotherapy. Each Experimental Session involves an overnight stay. The Primary Outcome measure, the change in Clinician Administered PTSD Scale for DSM-5 (CAPS-5), is determined by a blinded Independent Rater (IR) pool multiple times throughout the study. The study consists of separate periods for each participant. Initially, prospective participants undergo a Screening Period involving an initial eligibility assessment, a medical history intake, informed consent, and enrollment of eligible participants. Next, a Preparation Period is undertaken for enrolled participants involving medication tapering and clinical baseline assessments to confirm each participant meets enrollment criteria. As part of the Preparation Period, a detailed assessment of co-morbidities to PTSD is recorded. Participants may remain on prescribed courses of selective serotonin reuptake inhibitor (SSRI) or serotonin and norepinephrine reuptake inhibitor (SNRI) treatment. Dosages and/or frequency of administration of a prescribed SSRI or SNRI may be adjusted to fit within study parameters. Participants may be required to taper a prescribed course of medication in order to maintain eligibility within the study. The Treatment Period consists of three monthly Experimental Sessions and associated Intervening Sessions of integrative behavioral psychotherapy. The Treatment Period lasts approximately 12 weeks. Following the Treatment Period is a Follow-up Period and Study Conclusion. During the Follow-up Period and Study Conclusion, participants complete 4 weeks with no study visits, followed by a Study Conclusion visit.
# This study compares the effects of three blinded Experimental Sessions of psychotherapy in combination with flexible doses of MBDB or placebo administered as described below. Non-drug preparatory and intervening psychotherapy sessions are also included. Patient's weight is determined for dosage calculation. Initial dose is 180 mg unless this will result in a dosage of less than 1.5 mg/kg of patient weight. Initial dose thereby adjusted upward in 50 mg increments to deliver the lowest dose possible of at least 1.5 mg/kg of patient weight. Initial dose for Experimental Session 2 and 3 is cumulative dose calculated by adding the initial dose plus REMS protocol dose used the previous Experimental Session for each patient.
# Randomization occurs prior to the initiation of Experimental Session 1. Each participant is provided the next randomized number in a sequence by a blinded study monitor. Participants are then randomized, according to a computer-generated randomization schedule, 1:1:1:1 to racemic MBDB, S-MBDB, R-MBDB, or placebo. […]
# [3] = Physical stability of MBDB salts at 40° C./75% RH; type: physicochemical
# Method: During the screen, a single crystal Maleate 1 of sufficient size and quality was obtained from a vapor diffusion experiment with ethanol and hexane. The crystal structure is reported elsewhere but the data confirmed the anhydrous/unsolved nature of the material. […] Two new crystalline forms of MBDB Maleate were observed during the screening designated as MBDB Maleate 2 and MBDB Maleate 3 (FIG. 96, 97). Additional characterization of these samples was conducted to better understand the nature of the materials produced, as shown below. MBDB Maleate 2 was generated once from a cooling crystallization from dioxane. The proton nuclear magnetic resonance (NMR) spectrum was consistent with a monomaleate salt of MBDB and contained residual dioxane. Only a limited amount of material was recovered so the only additional characterization that could be completed was differential scanning calorimetry (DSC). The DSC thermogram appears consistent with an anhydrous/unsolvated form with a likely melt at 96° C. (FIG. 100). […] An attempt was made to reproduce Maleate 2 using the same conditions and seeds of Maleate 2. PXRD analysis of the recovered solids however was consistent with Maleate 1. MBDB Maleate 3 was isolated from an evaporation experiment involving chloroform and ethyl acetate. NMR analysis of the material was consistent with a mono-maleate salt of MBDB. Thermal analysis was consistent with an anhydrous/unsolvated material with a likely melting point of 73° C. (FIG. 101). […] No additional characterization was completed on this sample due to the limited amount of material that was recovered.
# [4] = Dynamic vapor sorption (DVS) analysis with post-DVS XRPD; type: physicochemical; conditions: for Hygroscopicity by DVS: 25° C., 5 to 95% RH; for Hygroscopic?: based on moisture uptake at 95% observed during DVS analysis; for Post-DVS XRPD (form change): solids after DVS analysis
# Method: DVS analysis was carried out using a TA Instruments Q5000 Dynamic Vapor Sorption analyzer. The instrument was calibrated with standard weights and a sodium bromide standard for humidity. Approximately 5-25 mg of sample was loaded into a metal-coated quartz pan for analysis. The sample was analyzed at 25° C. with a maximum equilibration time of one hour in 10% relative humidity (RH) steps from 5 to 95% RH (adsorption cycle) and from 95 to 5% RH (desorption cycle). The movement from one step to the next occurred either after satisfying the equilibrium criterion of 0.01% weight change or, if the equilibrium criterion was not met, after one hour. The percent weight change values were calculated using Microsoft Excel®.
# Male Sprague-Dawley rats [5] = experiment: Rat elevated zero-maze study with racemic MDE, R-MDE, S-MDE and chlordiazepoxide; conditions: positive control, 6 mg/kg ip
# Method: A reduction in the amount of activity on the open areas is considered to reflect an increase in anxiety. The ethologically-based behavior, stretched attend postures (SAP) from closed to open quadrants, is assessed as an index of anxiety. […] Animals
# as §1, §2
# Subjects were weighed and tail marked before being injected. After a specified pretreatment time, subjects were placed in a closed quadrant and a 5-min test period were recorded on videotape for subsequent analysis. The maze was cleaned with 5% methanol/water solution and dried thoroughly between test sessions. Behavioural measures comprise percentage time spent on the open areas (% TO) and frequency of stretched attend postures (SAP) from closed to open quadrants. Animals are scored as being in the open area when all four paws were in an open quadrant and in the closed area only when all four paws have passed over the open-closed divide.
# Thirty min later at T=0, rats were individually placed in a closed arm of the zero-maze and behavior was assessed by a “blind” observer using remote video monitoring over the subsequent 5 min. The animal was then removed and the maze carefully wiped with 5% methanol/water solution before the next test was begun.
# Thirty min later at T=0, rats were individually placed in a closed arm of the zero-maze and behavior assessed by a “blind” observer using remote video monitoring over the subsequent 5 min. The animal was then removed and the maze carefully wiped with 5% methanol/water solution before the next test was begun.
# Male Sprague-Dawley rats [6] = experiment: Rat elevated zero-maze study with MDAI and chlordiazepoxide; type: in vivo; conditions: positive control, 6 mg/kg ip
# Method: Three rats from the vehicle group, 3 rats from the 2.5 mg/kg MDAI group, and 3 rats from the CDP group were tested on a separate day from the other rats.
# [7] = 5 mg/kg ip, continued anxiogenic effect
compound,measurement,setting,value
CCC(Cc1ccc2c(c1)OCO2)NC (racemic) [racemic MBDB],Frequency of stretched attend postures (SAP),Male Sprague-Dawley rats [1]; [7],reached significance
same,Frequency of stretched attend postures (SAP),Male Sprague-Dawley rats [1]; 10 mg/kg ip,consistent level of SAPs similar to the 5 mg/kg
same,Frequency of stretched attend postures (SAP),Male Sprague-Dawley rats [1]; 30 mg/kg ip,showed a trend toward significance
same,Dose showing a switch to an anxiolytic effect (magnitude of the reduction in SAPs),Male Sprague-Dawley rats [1],30 mg/kg
same,Change in CAPS-5 assessment,[2],significant mean reduction in CAPS-5 assessment compared to the placebo group
same,Daytime sleepiness (ESS),[2],significant improvement in lessening daytime sleepiness
same,Clinician-rated functional impairment score (SDS),[2],significant improvement in clinician-rated functional impairment score
same,Depression (HAM-D),[2],significant improvement depression
"CCC(Cc1ccc2c(c1)OCO2)NC.O=C(O)CCC(=O)O (single isomer, unassigned) [Succinate 1]",Physical Stability,[3]; 40° C./75% RH overnight,Tacky solids
"CCC(Cc1ccc2c(c1)OCO2)NC.O=C(O)CCC(=O)O (single isomer, unassigned) [Succinate 2]",Hygroscopicity by DVS,[4],possible hydrate formation at high RH conditions
same,Hygroscopic?,[4],Moderately
same,Physical Stability,[3]; 40° C./75% RH overnight,No change
"CNC1=Nc2ccc(Cl)cc2C(c2ccccc2)=[N+]([O-])C1 [CDP, Chlordiazepoxide, reference compound]",Frequency of stretched attend postures (SAP),"Male Sprague-Dawley rats [1]; positive control, 6 mg/kg ip",significant reduction in SAPs
same,Percentage of time in the open arms (% TO),"Male Sprague-Dawley rats [1]; positive control, 6 mg/kg ip",did not show significance over vehicle
same,Frequency of stretched attend postures (SAP),Male Sprague-Dawley rats [5],significant reduction in SAPs
same,Percentage of time spent in the open arms (% TO),Male Sprague-Dawley rats [5],significant increase in time in the open arms for the R MDE group and S MDE group only
same,Frequency of HDIPS,Male Sprague-Dawley rats [6],trend towards increased
same,Percentage of time in the open arms (% TO),Male Sprague-Dawley rats [6],significant increase in the percentage of time in the open arms
same,Total line crossings,Male Sprague-Dawley rats [6],trend towards increased
same,Total open arm entries,Male Sprague-Dawley rats [6],trend towards increased
CCC(Cc1ccc2c(c1)OCO2)NC.O=C(O)CC(O)(CC(=O)O)C(=O)O (stereo not drawn) [Citrate 1],Physical Stability,[3]; 40° C./75% RH overnight,Tacky solids
CCC(Cc1ccc2c(c1)OCO2)NC.O=C(O)/C=C/C(=O)O (stereo not drawn) [Fumarate 1],Physical Stability,[3]; 40° C./75% RH overnight,No change
CCC(Cc1ccc2c(c1)OCO2)NC.O=C(O)[C@@H](O)[C@H](O)[C@H](O)[C@@H](O)C(=O)O (stereo not drawn) [Galactarate 1],Physical Stability,[3]; 40° C./75% RH overnight,No change
CCC(Cc1ccc2c(c1)OCO2)NC.O=C(O)CCC(=O)O (stereo not drawn) [MBDB succinate Form 2],Hygroscopicity by DVS,[4],moderately hygroscopic
same,Post-DVS XRPD (form change),[4],no form change
same,Physical Stability,[3]; after 1 day at 40° C./75% RH,No visible change
CCC(Cc1ccc2c(c1)OCO2)NC.O=C(O)CC(=O)O (stereo not drawn) [Malonate 1],Physical Stability,[3]; 40° C./75% RH overnight,No change
CCC(Cc1ccc2c(c1)OCO2)NC.O=P(O)(O)O (stereo not drawn) [Phosphate 1],Hygroscopicity by DVS,[4],hygroscopic
same,Hygroscopic?,[4],Hygroscopic
same,Post-DVS XRPD (form change),[4],no form change
same,Physical Stability,[3]; 40° C./75% RH overnight,No change
same,Physical Stability,[3]; after 1 day at 40° C./75% RH,No visible change
CC[C@H](Cc1ccc2c(c1)OCO2)NC [R-MBDB],Frequency of stretched attend postures (SAP),Male Sprague-Dawley rats [1]; 10 mg/kg ip,consistent level of SAPs similar to the 5 mg/kg
same,Frequency of stretched attend postures (SAP),Male Sprague-Dawley rats [1]; 15 mg/kg ip,reduction in the number of SAPs compared to lower doses
same,Frequency of stretched attend postures (SAP),Male Sprague-Dawley rats [1]; 30 mg/kg ip,decreased the frequency of SAPs as effectively as the benzodiazepine chlordiazepoxide
same,Frequency of stretched attend postures (SAP),"Male Sprague-Dawley rats [1]; 30 mg/kg ip, listed as R MBDB",significantly reduced the number of SAPs
same,Dose showing a switch to an anxiolytic effect (magnitude of the reduction in SAPs),Male Sprague-Dawley rats [1],15 mg/kg
same,Change in CAPS-5 assessment,[2],significant mean reduction in CAPS-5 assessment compared to the placebo group
same,Daytime sleepiness (ESS),[2],significant improvement in lessening daytime sleepiness
same,Clinician-rated functional impairment score (SDS),[2],significant improvement in clinician-rated functional impairment score
same,Depression (HAM-D),[2],significant improvement depression
same,Total dosage of drug to achieve significant mean reduction in CAPS-5,[2],lower total dosage of drug compared to the racemic MBDB-treated subgroup
CC[C@@H](Cc1ccc2c(c1)OCO2)NC [S-MBDB],Frequency of stretched attend postures (SAP),Male Sprague-Dawley rats [1]; [7],reached significance
same,Frequency of stretched attend postures (SAP),Male Sprague-Dawley rats [1]; 10 mg/kg ip,rapid reduction in total SAPs
same,Frequency of stretched attend postures (SAP),Male Sprague-Dawley rats [1]; 15 mg/kg ip,reduction in the number of SAPs compared to lower doses
same,Frequency of stretched attend postures (SAP),Male Sprague-Dawley rats [1]; 30 mg/kg ip,decreased the frequency of SAPs as effectively as the benzodiazepine chlordiazepoxide
same,Magnitude of the reduction in SAPs among MBDB forms,Male Sprague-Dawley rats [1]; 30 mg/kg ip,greatest
same,Frequency of stretched attend postures (SAP),"Male Sprague-Dawley rats [1]; 30 mg/kg ip, listed as S MBDB",significantly reduced the number of SAPs
same,Dose showing a switch to an anxiolytic effect (magnitude of the reduction in SAPs),Male Sprague-Dawley rats [1],10 mg/kg
same,Change in CAPS-5 assessment,[2],significant mean reduction in CAPS-5 assessment compared to the placebo group
same,Daytime sleepiness (ESS),[2],significant improvement in lessening daytime sleepiness
same,Clinician-rated functional impairment score (SDS),[2],significant improvement in clinician-rated functional impairment score
same,Depression (HAM-D),[2],significant improvement depression
same,Adverse anxiogenic incidents,[2]; vs placebo-treated controls,without a significant increase in adverse anxiogenic incidents
same,Total dosage of drug to achieve significant mean reduction in CAPS-5,[2],lower total dosage of drug compared to the racemic MBDB-treated subgroup
CCC(Cc1ccc2c(c1)OCO2)NC.O=S(=O)(O)O (stereo not drawn) [Sulfate 1],Physical Stability,[3]; 40° C./75% RH overnight,Deliquesced
CCC(Cc1ccc2c(c1)OCO2)NC.Cc1ccc(S(=O)(=O)O)cc1 (stereo not drawn) [Tosylate 1],Physical Stability,[3]; 40° C./75% RH overnight,No change
